Read-outs that look alike come from different tables or passages of the source.
Key:
A431 = test: Cell proliferation (Alamar Blue) assay, A431; assay type: cell-based; conditions: Homo sapiens, A-431; Cell Line A431
Protocol: Cells (SJSA-1, 786-O and A431) were seeded (5000 cells/100 μL/well) in 96-well tissue culture plate and incubated at 37° C./5% CO2 for 16-24 hours. The cells were then treated with compounds (25 μL of 5×). The compound concentrations were 10-0.0005 μM prepared in 3-fold serial dilutions with final DMSO concentration of 1%. The plates were then incubated for 24 h at 37° C./5% CO2 in a moist environment. Then Alamar Blue™ reagent (final concentration 1×-12.5 μL) was added to each well and incubated for 1.5 hours at 37° C./5% CO2. The plates were read on fluorescence reader at 540 nm excitation and 590 nm emission wavelengths. The IC50 values were subsequently determined using a sigmoidal dose-response curve (variable slope) in GraphPad Prism® 5 software.
The cell proliferation assays for the compounds shown Table 25 was performed according to the protocols described herein, including Examples 4 and 6.

SJSA-1 = test: Cell proliferation (Alamar Blue) assay, SJSA-1 osteosarcoma, with/without ferrostatin; assay type: cell-based, human; conditions: Homo sapiens
In short: (§1)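 Cells seeded at 5000/well, 16-24 h, then exposed 24 h at 37° C to compound, 10-0.0005 μM in 3-fold dilutions, 1% DMSO final. Alamar Blue fluorescence (ex 540/em 590 nm) read after 1.5 h; IC50 from variable-slope sigmoidal fit.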

786-O = test: Cell proliferation (Alamar Blue) assay, 786-O renal cell carcinoma, with/without ferrostatin; assay type: cell-based; conditions: Homo sapiens
In short: as §1

[1] = SJSA-1, Cell Line SJSA-1, read-out: IC50
[2] = 786-0, Cell Line 786-O, read-out: IC50
[3] = SJSA-1, 24 h, Alamar Blue, 24 h, 2 μM ferrostatin, read-out: SJSA-1 (IC50, μM) 2 μM Ferrostatin
[4] = SJSA-1, 24 h, Alamar Blue, 24 h, without ferrostatin, read-out: SJSA-1 (IC50, μM) Without Ferrostatin
[5] = 786-0, 24 h, Alamar Blue, 24 h, 2 μM ferrostatin, read-out: 786-O (IC50, μM) 2 μM Ferrostatin
[6] = 786-0, 24 h, Alamar Blue, 24 h, without ferrostatin, read-out: 786-O (IC50, μM) Without Ferrostatin

| SMILES | IC50 (A431) | IC50 (SJSA-1; [1]) | IC50 (786-O; [2]) | IC50 (SJSA-1; [3]) | IC50 (SJSA-1; [4]) | IC50 (786-O; [5]) | IC50 (786-O; [6]) |
| --- | --- | --- | --- | --- | --- | --- | --- |
| C[C@H]1Cc2c([nH]c3ccc(Cl)cc23)[C@H](c2ccc(S(=O)(=O)NC3CC3)cc2F)N1C(=O)CCl [Compound 172, 4-((1S,3S)-6-chloro-2-(2-chloroacetyl)-3-methyl-2,3,4,9-tetrahydro-1H-pyrido[3,4-b]indol-1-yl)-N-cyclopropyl-3-fluorobenzenesulfonamide] | 2.11 µM | 0.023 µM | 0.023 µM | 4.1 µM | 0.023 µM | 6.76 µM | 0.023 µM |
| C#CC(=O)N1[C@@H](COC)Cc2c([nH]c3ccccc23)[C@@H]1c1ccc(S(=O)(=O)NC2CC2)cc1F [Compound 144] | 3.5 µM | 0.025 µM | 0.007 µM |  |  |  |  |
| C#CC(=O)N1[C@@H](CCCC)Cc2c([nH]c3ccccc23)[C@@H]1c1ccc(S(=O)(=O)NC2CC2)cc1F [Compound 167, 4-((1S,3S)-3-butyl-2-propioloyl-2,3,4,9-tetrahydro-1H-pyrido[3,4-b]indol-1-yl)-N-cyclopropyl-3-fluorobenzenesulfonamide] | 1.93 µM | 0.011 µM | 0.005 µM | 4.01 µM | 0.011 µM | 2 µM | 0.005 µM |
| C[C@H]1Cc2c([nH]c3ccc(F)cc23)[C@H](c2ccc(S(=O)(=O)NC3CC3)cc2F)N1C(=O)CCl (stereo in doubt) [Compound 164, 4-((1S,3S)-2-(2-chloroacetyl)-6-fluoro-3-methyl-2,3,4,9-tetrahydro-1H-pyrido[3,4-b]indol-1-yl)-N-cyclopropyl-3-fluorobenzenesulfonamide] | 9.94 µM | 0.013 µM | 0.023 µM | 7.06 µM | 0.013 µM | 6.34 µM | 0.023 µM |
| C[C@H]1Cc2c([nH]c3ccccc23)[C@H](c2ccc(C(=O)Nc3ccccn3)cc2)N1C(=O)CCl (single isomer, unassigned) [Compound 219] | 1.9 µM | 0.036 µM | 0.051 µM |  |  |  |  |
| C#CCOc1ccc([C@H]2c3[nH]c4ccccc4c3C[C@H](C(=O)OC)N2C(=O)CCl)cc1 [Compound 147, methyl (1S,3R)-2-(2-chloroacetyl)-1-(4-(prop-2-yn-1-yloxy)phenyl)-2,3,4,9-tetrahydro-1H-pyrido[3,4-b]indole-3-carboxylate] | > 10 µM | 0.159 µM | 0.049 µM |  |  |  |  |
| C[C@H]1Cc2c([nH]c3ccccc23)[C@@H](c2ccc(N3CCOCC3)nc2)N1C(=O)CCl [Compound 157] | 2 µM | > 10 µM | > 10 µM |  |  |  |  |
| Cc1cc(N2CCOCC2)ccc1[C@@H]1c2[nH]c3ccccc3c2C[C@H](C)N1C(=O)CCl [Compound 128, 2-chloro-1-((1R,3S)-3-methyl-1-(2-methyl-4-morpholinophenyl)-1,3,4,9-tetrahydro-2H-pyrido[3,4-b]indol-2-yl)ethan-1-one] | > 10 µM | 0.184 µM | 0.188 µM |  |  |  |  |
| C#CC(=O)N1[C@@H](c2ccc(S(=O)(=O)NC3CC3)cc2F)c2[nH]c3ccc(OC)cc3c2C[C@@H]1C [Compound 165, N-cyclopropyl-3-fluoro-4-((1S,3S)-6-methoxy-3-methyl-2-propioloyl-2,3,4,9-tetrahydro-1H-pyrido[3,4-b]indol-1-yl)benzenesulfonamide] | 3.44 µM | 0.119 µM | 0.047 µM | 3.77 µM | 0.119 µM | 4.79 µM | 0.047 µM |
| C[C@H]1Cc2c([nH]c3ccccc23)[C@H](c2ccc3c(c2)CNC3=O)N1C(=O)CCl [Compound 168, 5-((1S,3S)-2-(2-chloroacetyl)-3-methyl-2,3,4,9-tetrahydro-1H-pyrido[3,4-b]indol-1-yl)isoindolin-1-one] | 5.09 µM | 0.56 µM | 0.487 µM | > 10 µM | 0.56 µM | 3.31 µM | 0.487 µM |
| CCCC[C@H]1Cc2c([nH]c3ccc(F)cc23)[C@H](c2ccc(S(=O)(=O)NC3CCC3)cc2)N1C(=O)CCl [Compound 145, 4-((1S,3S)-3-butyl-2-(2-chloroacetyl)-6-fluoro-2,3,4,9-tetrahydro-1H-pyrido[3,4-b]indol-1-yl)-N-cyclobutylbenzenesulfonamide] | 4.6 µM | 0.004 µM | 0.003 µM |  |  |  |  |
| C#CC(=O)N1[C@@H](c2ccc(S(=O)(=O)NC3CC3)cc2F)c2[nH]c3ccc(Cl)cc3c2C[C@@H]1C [Compound 151] | 5.22 µM | 0.037 µM | 0.018 µM |  |  |  |  |

More lines, now with the values ahead:

| IC50 (A431) | IC50 (SJSA-1; [1]) | IC50 (786-O; [2]) | IC50 (SJSA-1; [3]) | IC50 (SJSA-1; [4]) | IC50 (786-O; [5]) | IC50 (786-O; [6]) | SMILES |
| --- | --- | --- | --- | --- | --- | --- | --- |
| > 10 µM | > 10 µM | 6.4 µM |  |  |  |  | C[C@H]1Cc2c([nH]c3ccccc23)C(c2ccc(-n3ccnc3)cc2)N1C(=O)CCl (stereo partly drawn) [Compound 163, 1-((3S)-1-(4-(1H-imidazol-1-yl)phenyl)-3-methyl-1,3,4,9-tetrahydro-2H-pyrido[3,4-b]indol-2-yl)-2-chloroethan-1-one] |
| 2.4 µM | 0.03 µM | 0.023 µM |  |  |  |  | C#CC(=O)N1[C@@H](c2ccc(F)cc2)c2[nH]c3ccccc3c2C[C@@H]1C(=O)OC [Compound 146, methyl (1S,3R)-1-(4-fluorophenyl)-2-propioloyl-2,3,4,9-tetrahydro-1H-pyrido[3,4-b]indole-3-carboxylate] |
| 1.85 µM | 0.066 µM | 0.066 µM | 4.79 µM | 0.066 µM | 5.62 µM | 0.066 µM | C[C@H]1Cc2c([nH]c3ccccc23)[C@H](c2ccc(N3CC4(COC4)C3)cc2)N1C(=O)CCl [Compound 213, 1-((1S,3S)-1-(4-(2-oxa-6-azaspiro[3.3]heptan-6-yl)phenyl)-3-methyl-1,3,4,9-tetrahydro-2H-pyrido[3,4-b]indol-2-yl)-2-chloroethan-1-one] |
| 3.67 µM | 0.034 µM | 0.023 µM | 3.98 µM | 0.034 µM | 3.95 µM | 0.023 µM | COc1ccc2[nH]c3c(c2c1)C[C@H](C)N(C(=O)CCl)[C@H]3c1ccc(S(=O)(=O)NC2CC2)cc1F [Compound 173, 4-((3S)-2-(2-chloroacetyl)-6-methoxy-3-methyl-2,3,4,9-tetrahydro-1H-pyrido[3,4-b]indol-1-yl)-N-cyclopropyl-3-fluorobenzenesulfonamide] |
| > 10 µM | 0.01 µM | 0.008 µM | > 10 µM | 0.01 µM | 9.52 µM | 0.008 µM | COC[C@H]1Cc2c([nH]c3ccccc23)[C@H](c2ccc(C(=O)NC3CC3)cc2F)N1C(=O)CCl [Compound 166, 4-((1S,3R)-2-(2-chloroacetyl)-3-(methoxymethyl)-2,3,4,9-tetrahydro-1H-pyrido[3,4-b]indol-1-yl)-N-cyclopropyl-3-fluorobenzamide] |
| 4.19 µM | 0.062 µM | 0.058 µM | 9.11 µM | 0.062 µM | 8.09 µM | 0.058 µM | C[C@H]1Cc2c([nH]c3ccccc23)[C@H](c2ccc(S(=O)(=O)N(C)C3CC3)cc2F)N1C(=O)CCl [Compound 170] |
| 4.4 µM | 4.4 µM | 4.2 µM |  |  |  |  | C[C@H]1Cc2c([nH]c3ccccc23)[C@@H](c2ccc(N3CCOCC3)cc2F)N1C(=O)CCl [Compound 129] |
